The text below walks through data of patent US9255090B2, “Heterocyclyl derivatives and their use as prostaglandin D2 receptor modulators” (Actelion Pharmaceuticals Ltd., priority 2012, dated 2016).

One assay concerns the target hCRTH2 receptor (Homo sapiens (Human), UniProt Q9Y5Y4). The assay can be described thus: hCRTH2 receptor membranes radioligand (3H-PGD2) displacement assay. The settings on record: 3H-PGD2 radioligand displacement, HEK293-hCRTH2 membranes. The assay is classed as binding. In a few lines:
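Compound was first mixed with buffer, then 3H-PGD2 was added at 2.5 nM, and the reaction was started with hCRTH2 membranes from HEK293 cells at 20 μg/well. After 90 min at room temperature, mixtures were filtered and washed with ice-cold buffer, and retained radioactivity was counted.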
For orientation: In a radioligand displacement assay an active substance lowers the binding of a labelled ligand.

A further assay concerns eosinophils. The assay can be described thus: Eosinophil shape change assay with human plasma. Particulars: human plasma (50%), PGD2 100 nM activation, antagonistic activity. The assay is classed as cell-based. An excerpt: Eosinophil Shape Change Assay with Human Plasma
After obtaining informed consent, blood samples were drawn by venipuncture according to the protocol approved by the ethics committee of Basel, Switzerland. Polymorphonuclear leukocytes (containing eosinophils, basophils and neutrophils) were isolated using the Polymorphprep™ method (Axis-Shield). […] The polymorphonuclear cell fraction was harvested and depleted for erythrocytes by hypotonic saline lysis.
The polymorphonuclear cells were resuspended in assay buffer (1×PBS with Ca^2+/Mg^2+ supplemented with 0.1% BSA, 10 mM HEPES, and 10 mM Glucose, pH 7.4) at 5×10^6 cells/ml and stained with anti-CD49d-APC ((APC=Allophycocyanin) for 1 hour at RT. Test compounds, at various concentrations, were preincubated 10 min in human plasma (anticoagulated with a thrombin inhibitor). Then, human plasma was added to the polymorphonuclear cells to 50% of final assay volume with polymorphonuclear cells at 4×10^6 cells/ml. After incubation for 10 minutes at 37° C., the polymorphonuclear cells were activated for 5 min at 37° C. by addition of PGD2 at 100 nM final concentration. Activation was stopped by addition of 0.5 ml paraformaldehyde (1%).
Immediately after fixation with paraformaldehyde, the samples were analyzed by FACSCanto flow cytometer (BD Biosciences) and target cells were identified by their forward-scatter (FSC) and side-scatter (SSC) characteristics. Eosinophils were identified by the anti-CD49d-APC signal and their characteristic side-scatter (SSC) profile. Shape change responses, indicative of eosinophil activation, were quantified as the percent of cells with an increased forward-scatter.

Chain of hCRTH2 receptor (Q9Y5Y4 whole entry): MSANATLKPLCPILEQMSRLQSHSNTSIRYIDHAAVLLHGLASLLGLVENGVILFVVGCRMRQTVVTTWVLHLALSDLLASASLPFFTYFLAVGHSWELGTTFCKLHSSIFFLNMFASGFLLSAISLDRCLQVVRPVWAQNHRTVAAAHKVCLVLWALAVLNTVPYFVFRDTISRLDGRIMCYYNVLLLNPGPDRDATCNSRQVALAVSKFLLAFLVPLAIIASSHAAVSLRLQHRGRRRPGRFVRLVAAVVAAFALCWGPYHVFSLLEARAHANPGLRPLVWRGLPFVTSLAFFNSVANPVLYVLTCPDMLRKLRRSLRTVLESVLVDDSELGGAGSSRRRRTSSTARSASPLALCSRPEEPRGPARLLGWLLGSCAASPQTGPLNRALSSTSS

By IC50 is commonly meant the midpoint of a concentration-inhibition curve. The low end stands for greater potency in that assay, the high end for weaker potency in that assay. As for `CCOc1ccc(CC(=O)O)cc1-c1ccc(F)c2c1CN(C(=O)CCc1ccccn1)CC2` [Example 348, {4-Ethoxy-3-[5-fluoro-2-(3-pyridin-2-yl-propionyl)-1,2,3,4-tetrahydro-isoquinolin-8-yl]-phenyl}-acetic acid], the IC50 is 2.7 nM at hCRTH2 receptor and 16 nM with eosinophils (Homo sapiens, Eosinophil).

In the case of `CCOc1cc(CC(=O)O)ccc1-c1ccc(F)c2c1CN(C(=O)CC1OCCc3ccccc31)CC2` (racemic) [Example 229], the IC50 was 0.7 nM at hCRTH2 receptor and 15 nM in the assay on eosinophils (Homo sapiens, Eosinophil).

Take `CC(C)COc1ccc(CC(=O)O)cc1-c1ccc(F)c2c1CN(C(=O)OCc1ccccc1)CC2` [Example 198, 8-(5-Carboxymethyl-2-isobutoxy-phenyl)-5-fluoro-3,4-dihydro-1H-isoquinoline-2-carboxylic acid benzyl ester]: the IC50 at hCRTH2 receptor worked out at 1.28 nM; in the assay on eosinophils (Homo sapiens, Eosinophil) it was 72 nM.

With `COc1ccc(CC(=O)O)cc1-c1ccc(F)c2c1CN(C(=O)[C@@H]1C[C@H]1c1ccccc1)CC2` [Example 80, {3-[5-Fluoro-2-((1R,2R)-2-phenyl-cyclopropanecarbonyl)-1,2,3,4-tetrahydro-isoquinolin-8-yl]-4-methoxy-phenyl}-acetic acid], the IC50 is 1.89 nM at hCRTH2 receptor and 4.7 nM in the assay on eosinophils (Homo sapiens, Eosinophil).

With `COc1ccc(CC(=O)O)cc1-c1ccc(F)c2c1CN(C(=O)CC(C)(C)c1ccc(F)cc1)CC2` [Example 363, (3-{5-Fluoro-2-[3-(4-fluoro-phenyl)-3-methyl-butyryl]-1,2,3,4-tetrahydro-isoquinolin-8-yl}-4-methoxy-phenyl)-acetic acid], the IC50 turned out to be 2.4 nM at hCRTH2 receptor and 20 nM in the assay on eosinophils (Homo sapiens, Eosinophil).

For the molecule `COc1ccc(CC(=O)O)cc1-c1ccc(F)c2c1CN(C(=O)CC1CCc3ccccc3C1)CC2` (racemic) [Example 260], the IC50 came to 1.4 nM on hCRTH2 receptor and 56 nM in the assay on eosinophils (Homo sapiens, Eosinophil).

Take `CCOc1ccc(CC(=O)O)cc1-c1ccc(F)c2c1CN(C(=O)CC(C)c1ccccn1)CC2` (racemic) [Example 345]: the IC50 on hCRTH2 receptor is 4.8 nM; with eosinophils (Homo sapiens, Eosinophil) it was 31 nM.

As for `COc1ccc(CC(=O)O)cc1-c1ccc(F)c2c1CN(C(=O)OCc1cccc(F)c1)CC2` [Example 138, 8-(5-Carboxymethyl-2-methoxy-phenyl)-5-fluoro-3,4-dihydro-1H-isoquinoline-2-carboxylic acid 3-fluoro-benzyl ester], the IC50 on hCRTH2 receptor was 5.42 nM; in the assay on eosinophils (Homo sapiens, Eosinophil), 908 nM.

In the case of `CCOc1ccc(CC(=O)O)cc1-c1ccc(F)c2c1CN(C(=O)C[C@@H](C)c1ccccc1)CC2` [Example 221, {4-Ethoxy-3-[5-fluoro-2-((R)-3-phenyl-butyryl)-1,2,3,4-tetrahydro-isoquinolin-8-yl]-phenyl}-acetic acid], the IC50 on hCRTH2 receptor came out at 1.2 nM; in the assay with eosinophils (Homo sapiens, Eosinophil), 34 nM.

Take `CCOc1cc(CC(=O)O)ccc1-c1ccc(F)c2c1CN(C(=O)C(C)Cc1ccccn1)CC2` (racemic) [Example 352]: the IC50 at hCRTH2 receptor was determined as 8.1 nM; in the assay with eosinophils (Homo sapiens, Eosinophil), 103 nM.

Regarding `CCOc1cc(CC(=O)O)ccc1-c1ccc(F)c2c1CN(C(=O)OCc1cc(F)ccc1F)CC2` [Example 407, 8-(4-Carboxymethyl-2-ethoxy-phenyl)-5-fluoro-3,4-dihydro-1H-isoquinoline-2-carboxylic acid 2,5-difluoro-benzyl ester], the IC50 on hCRTH2 receptor was found to be 2.1 nM; with eosinophils (Homo sapiens, Eosinophil) it was 9 nM.

Consider `CC(C)(C)Oc1ccc(CC(=O)O)cc1-c1ccc(F)c2c1CN(C(=O)OCc1ccccc1)CC2` [Example 419, 8-(2-tert-Butoxy-5-carboxymethyl-phenyl)-5-fluoro-3,4-dihydro-1H-isoquinoline-2-carboxylic acid benzyl ester], for which the IC50 turned out to be 2.8 nM at hCRTH2 receptor and 35 nM in the assay with eosinophils (Homo sapiens, Eosinophil).

On to `COc1ccc(CC(=O)O)cc1-c1ccc(F)c2c1CN(C(=O)CC1OCCc3ccccc31)CC2` (racemic) [Example 257], for which the IC50 at hCRTH2 receptor came out at 2.2 nM; in the assay on eosinophils (Homo sapiens, Eosinophil), 35 nM.

`CCOc1cc(CC(=O)O)ccc1-c1ccc(F)c2c1CN(C(=O)CC1OCCc3ccccc31)CC2` (centres unmarked) [Example 206, {3-Ethoxy-4-[5-fluoro-2-(2-isochroman-1-yl-acetyl)-1,2,3,4-tetrahydro-isoquinolin-8-yl]-phenyl}-acetic acid]: the IC50 on hCRTH2 receptor stood at 2.4 nM; with eosinophils it was 14 nM.

For the molecule `COc1ccc(OCC(=O)O)cc1-c1ccc(F)c2c1CN(C(=O)[C@@H]1C[C@H]1c1ccccc1)CC2` [Example 182, {3-[5-Fluoro-2-((1R,2R)-2-phenyl-cyclopropanecarbonyl)-1,2,3,4-tetrahydro-isoquinolin-8-yl]-4-methoxy-phenoxy}-acetic acid], the IC50 at hCRTH2 receptor came to 4.36 nM; in the assay on eosinophils (Homo sapiens, Eosinophil), 34 nM.

`COc1ccc(CC(=O)O)cc1-c1ccc(F)c2c1CN(C(=O)CC1(c3ccccc3)CC1)CC2` [Example 258, (3-{5-Fluoro-2-[2-(1-phenyl-cyclopropyl)-acetyl]-1,2,3,4-tetrahydro-isoquinolin-8-yl}-4-methoxy-phenyl)-acetic acid]: the IC50 at hCRTH2 receptor worked out at 2.8 nM; in the assay on eosinophils (Homo sapiens, Eosinophil), 101 nM.

Regarding `COc1ccc(CC(=O)O)cc1-c1ccc(F)c2c1CN(C(=O)CC1CCOc3ccccc31)CC2` (racemic) [Example 262], the IC50 on hCRTH2 receptor came to 8.4 nM; in the assay with eosinophils (Homo sapiens, Eosinophil) it was 66 nM.

For the molecule `CCOc1ccc(CC(=O)O)cc1-c1ccc(F)c2c1CN(C(=O)OCc1cc(F)ccc1F)CC2` [Example 401, 8-(5-Carboxymethyl-2-ethoxy-phenyl)-5-fluoro-3,4-dihydro-1H-isoquinoline-2-carboxylic acid 2,5-difluoro-benzyl ester], the IC50 on hCRTH2 receptor was 4.5 nM; with eosinophils (Homo sapiens, Eosinophil), 26 nM.

In the case of `CCOc1ccc(CC(=O)O)cc1-c1ccc(F)c2c1CN(C(=O)CCc1ccc(F)cc1)CC2` [Example 310, (4-Ethoxy-3-{5-fluoro-2-[3-(4-fluoro-phenyl)-propionyl]-1,2,3,4-tetrahydro-isoquinolin-8-yl}-phenyl)-acetic acid], the IC50 on hCRTH2 receptor amounted to 1.7 nM; with eosinophils (Homo sapiens, Eosinophil) it was 7 nM.

Turning to `COc1ccc(CC(=O)O)cc1-c1ccc(F)c2c1CN(C(=O)CC1CCOc3cc(F)ccc31)CC2` (racemic) [Example 243], the IC50 on hCRTH2 receptor was 20.6 nM; in the assay on eosinophils (Homo sapiens, Eosinophil), 92 nM.

Turning to `O=C(O)Cc1ccc(OCC(F)F)c(-c2ccc(F)c3c2CN(C(=O)OCc2ccccc2)CC3)c1` [Example 413, 8-[5-Carboxymethyl-2-(2,2-difluoro-ethoxy)-phenyl]-5-fluoro-3,4-dihydro-1H-isoquinoline-2-carboxylic acid benzyl ester], the IC50 on hCRTH2 receptor was determined as 0.8 nM; with eosinophils (Homo sapiens, Eosinophil) it was 44 nM.

With `COc1ccc(CC(=O)O)cc1-c1ccc(F)c2c1CN(C(=O)CCN1CCc3ccccc31)CC2` [Example 59, {3-[2-(3-2,3-Dihydro-indol-1-yl-propionyl)-5-fluoro-1,2,3,4-tetrahydro-isoquinolin-8-yl]-4-methoxy-phenyl}-acetic acid], the IC50 at hCRTH2 receptor is 7.4 nM; in the assay with eosinophils (Homo sapiens, Eosinophil) it was 182 nM.

On to `COc1cc(CC(=O)O)ccc1-c1ccc(F)c2c1CN(C(=O)COCc1ccccc1Cl)CC2` [Example 193, (4-{2-[2-(2-Chloro-benzyloxy)-acetyl]-5-fluoro-1,2,3,4-tetrahydro-isoquinolin-8-yl}-3-methoxy-phenyl)-acetic acid], for which the IC50 on hCRTH2 receptor amounted to 1.38 nM; with eosinophils (Homo sapiens, Eosinophil), 94 nM.

In the case of `COc1ccc(CC(=O)O)cc1-c1ccc(F)c2c1CN(C(=O)NCc1ccc(F)cc1)CC2` [Example 132, {3-[5-Fluoro-2-(4-fluoro-benzylcarbamoyl)-1,2,3,4-tetrahydro-isoquinolin-8-yl]-4-methoxy-phenyl}-acetic acid], the IC50 was 15.1 nM at hCRTH2 receptor and more than 1000 nM in the assay with eosinophils (Homo sapiens, Eosinophil).

In the case of `CCOc1ccc(CC(=O)O)cc1-c1ccc(F)c2c1CN(C(=O)CC(C)c1cccc(C)n1)CC2` (racemic) [Example 328], the IC50 at hCRTH2 receptor stood at 1.8 nM; in the assay on eosinophils (Homo sapiens, Eosinophil), 15 nM.

As to `COc1ccc(CC(=O)O)cc1-c1ccc(F)c2c1CN(C(=O)CC(C)(C)c1cccc(F)c1)CC2` [Example 252, (3-{5-Fluoro-2-[3-(3-fluoro-phenyl)-3-methyl-butyryl]-1,2,3,4-tetrahydro-isoquinolin-8-yl}-4-methoxy-phenyl)-acetic acid], the IC50 on hCRTH2 receptor was 13.2 nM; in the assay with eosinophils (Homo sapiens, Eosinophil), 258 nM.

Regarding `CCOc1cc(CC(=O)O)ccc1-c1ccc(F)c2c1CN(C(=O)CCc1cccc(C)n1)CC2` [Example 321, (3-Ethoxy-4-{5-fluoro-2-[3-(6-methyl-pyridin-2-yl)-propionyl]-1,2,3,4-tetrahydro-isoquinolin-8-yl}-phenyl)-acetic acid], the IC50 turned out to be 7.3 nM at hCRTH2 receptor and 20 nM with eosinophils (Homo sapiens, Eosinophil).

As for `COc1ccc(CC(=O)O)cc1-c1ccc(F)c2c1CN(C(=O)OCc1ccccc1F)CC2` [Example 146, 8-(5-Carboxymethyl-2-methoxy-phenyl)-5-fluoro-3,4-dihydro-1H-isoquinoline-2-carboxylic acid 2-fluoro-benzyl ester], the IC50 on hCRTH2 receptor was 3.06 nM; in the assay with eosinophils (Homo sapiens, Eosinophil), 266 nM.
